The record followed here is patent publication US12486267B2, “Imidazo[1,2-A]pyridine and [1,2,4]triazolo[1,5-A]pyridine derivatives as TLR9 inhibitors for the treatment of fibrosis” (BRISTOL-MYERS SQUIBB COMPANY, priority 2020, dated 2025).

One experiment concerns the target T1, human TLR9 (Homo sapiens, UniProt Q9NR96).
T1 sequence (Q9NR96 26-1032): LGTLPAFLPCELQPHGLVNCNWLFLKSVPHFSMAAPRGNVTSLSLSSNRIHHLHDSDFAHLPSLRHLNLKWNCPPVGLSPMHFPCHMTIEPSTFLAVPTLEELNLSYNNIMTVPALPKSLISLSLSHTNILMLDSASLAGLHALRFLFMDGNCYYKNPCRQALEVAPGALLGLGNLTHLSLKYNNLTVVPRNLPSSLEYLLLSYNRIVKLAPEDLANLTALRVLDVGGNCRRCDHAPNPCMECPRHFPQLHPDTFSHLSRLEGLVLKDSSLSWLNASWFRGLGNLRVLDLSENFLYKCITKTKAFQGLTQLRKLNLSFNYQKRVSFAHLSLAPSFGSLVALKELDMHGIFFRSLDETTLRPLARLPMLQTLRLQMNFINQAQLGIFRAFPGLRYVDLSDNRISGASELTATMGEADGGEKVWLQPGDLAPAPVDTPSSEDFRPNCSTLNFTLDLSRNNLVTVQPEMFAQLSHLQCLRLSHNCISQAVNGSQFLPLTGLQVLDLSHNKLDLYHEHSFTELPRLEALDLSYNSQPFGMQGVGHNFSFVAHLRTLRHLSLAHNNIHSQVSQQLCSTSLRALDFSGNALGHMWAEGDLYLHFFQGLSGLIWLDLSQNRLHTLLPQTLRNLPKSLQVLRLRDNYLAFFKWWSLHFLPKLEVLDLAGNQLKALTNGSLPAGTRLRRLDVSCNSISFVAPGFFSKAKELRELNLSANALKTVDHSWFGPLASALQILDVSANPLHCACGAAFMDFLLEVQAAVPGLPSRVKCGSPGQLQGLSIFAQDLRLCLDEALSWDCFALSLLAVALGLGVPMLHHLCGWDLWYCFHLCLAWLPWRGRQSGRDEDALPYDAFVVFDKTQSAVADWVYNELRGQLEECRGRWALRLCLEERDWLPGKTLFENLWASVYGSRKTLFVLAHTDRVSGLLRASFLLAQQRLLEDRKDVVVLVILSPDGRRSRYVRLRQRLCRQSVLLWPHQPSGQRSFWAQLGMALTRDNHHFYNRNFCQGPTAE
Description: TLR9 inhibition reporter assay (HEK-Blue cells, SEAP reporter). It is filed as cell-based. As to conditions: HEK-Blue cells overexpressing human TLR9; stimulated with ODN2006 5 nM; 22 hour incubation; SEAP readout. The protocol: (§1) TLR7/8/9 Inhibition Reporter Assays
(§2) HEK-Blue™-cells (Invivogen) overexpressing human TLR7, TLR8 or TLR9 receptors were used for screening inhibitors of these receptors using an inducible SEAP (secreted embryonic alkaline phosphatase) reporter gene under the control of the […] minimal promoter fused to five NF-κB and AP-1-binding sites. Briefly, cells are seeded into Greiner 384 well plates (15000 cells per well for TLR7, 20,000 for TLR8 and 25,000 for TLR9) and then treated with test compounds in DMSO to yield a final dose response concentration range of 0.05 nM-50 μM. After a 30 minute compound pre-treatment at room temperature, the cells are then stimulated with a TLR7 ligand (gardiquimod at a final concentration of 7.5 μM), TLR8 ligand (R848 at a final concentration of 15.9 μM) or TLR9 ligand (ODN2006 at a final concentration of 5 nM) to activate NF-κB and AP-1 which induce the production of SEAP. After a 22 hour incubation at 37° C., 5% CO2, SEAP levels are determined with the addition of HEK-Blue™ Detection reagent (Invivogen), a cell culture medium that allows for detection of SEAP, according to manufacturer's specifications. The percent inhibition is determined as the % reduction in the HEK-Blue signal present in wells treated with agonist plus DMSO alone compared to wells treated with a known inhibitor.
For orientation: Reporter assays use an easily measured gene product as a stand-in for the process of interest.

A further experiment deals with T2, human TLR7 (Homo sapiens, UniProt Q9NYK1).
T2 sequence (Q9NYK1 27-1049): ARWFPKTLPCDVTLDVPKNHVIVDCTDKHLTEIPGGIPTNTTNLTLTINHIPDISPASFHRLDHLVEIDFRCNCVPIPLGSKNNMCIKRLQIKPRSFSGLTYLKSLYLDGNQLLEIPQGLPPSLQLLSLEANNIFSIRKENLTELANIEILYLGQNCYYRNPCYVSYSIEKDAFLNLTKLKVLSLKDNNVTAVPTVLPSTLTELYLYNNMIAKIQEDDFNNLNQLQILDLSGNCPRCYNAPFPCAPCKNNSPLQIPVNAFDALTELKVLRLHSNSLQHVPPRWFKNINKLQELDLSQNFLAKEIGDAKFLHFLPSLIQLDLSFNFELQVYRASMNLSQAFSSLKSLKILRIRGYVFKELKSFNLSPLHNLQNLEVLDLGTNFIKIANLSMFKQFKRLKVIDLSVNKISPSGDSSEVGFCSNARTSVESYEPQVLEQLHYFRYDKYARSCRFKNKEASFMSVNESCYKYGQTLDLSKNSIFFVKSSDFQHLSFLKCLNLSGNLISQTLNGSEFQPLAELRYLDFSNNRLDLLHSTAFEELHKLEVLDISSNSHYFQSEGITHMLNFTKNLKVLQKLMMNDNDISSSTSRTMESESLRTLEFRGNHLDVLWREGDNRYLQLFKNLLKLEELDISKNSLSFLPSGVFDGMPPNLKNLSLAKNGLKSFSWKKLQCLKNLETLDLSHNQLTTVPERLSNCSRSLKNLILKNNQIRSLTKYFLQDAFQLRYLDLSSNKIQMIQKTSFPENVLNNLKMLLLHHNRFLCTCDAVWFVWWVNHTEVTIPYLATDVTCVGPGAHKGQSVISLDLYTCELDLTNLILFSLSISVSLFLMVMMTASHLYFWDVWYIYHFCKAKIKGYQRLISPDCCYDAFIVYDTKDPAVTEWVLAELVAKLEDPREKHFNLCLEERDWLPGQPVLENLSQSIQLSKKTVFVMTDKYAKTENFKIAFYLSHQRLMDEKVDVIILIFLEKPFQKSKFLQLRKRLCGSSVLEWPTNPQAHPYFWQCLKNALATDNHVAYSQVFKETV
Put plainly: TLR7 inhibition reporter assay (HEK-Blue cells, SEAP reporter). The conditions noted are these: HEK-Blue cells overexpressing human TLR7; stimulated with gardiquimod 7.5 μM; 22 hour incubation; SEAP readout. It is filed as cell-based. The protocol: as §1, §2

In the case of `CC(C)CN1CCC(N2CCC(c3ccn4cc(-c5ccc(S(C)(=O)=O)cc5)nc4c3F)CC2)CC1` [Example 74, 8-fluoro-7-(1′-isobutyl-[1,4′-bipiperidin]-4-yl)-2-(4-(methylsulfonyl)phenyl)imidazo[1,2-a]pyridine], the IC50 (as a rule, the concentration at which inhibition is half-maximal) at human TLR9 is 0.055 µM; against human TLR7 it was 2.4 µM.

Regarding `COCCN1CCN(c2ccc(-c3cc(C)c4nc(-c5ccc(OC)c(OC)c5)cn4c3)cc2)CC1` [Example 98, 2-(3,4-dimethoxyphenyl)-6-(4-(4-(2-methoxyethyl)piperazin-1-yl)phenyl)-8-methylimidazo[1,2-a]pyridine], the IC50 stood at 0.456 µM against human TLR9 and 1 µM against human TLR7. Compound `COc1ccc(-c2cn3cc(C4CC5CCC(C4)N5C4CCN(CC(C)C)CC4)cc(C)c3n2)cc1OC` (single isomer, unassigned) [Example 28, 2-(3,4-dimethoxyphenyl)-6-(8-(1-isobutylpiperidin-4-yl)-8-azabicyclo[3.2.1]octan-3-yl)-8-methylimidazo[1,2-a]pyridine] showed an IC50 against human TLR9 of 0.0079 µM. For `Cc1cc(C2CCN(C3CC4CCC(C3)N4C3CCC3)CC2)cn2cc(-c3ccc(S(C)(=O)=O)cc3)nc12` (single isomer, unassigned) [Example 83, 6-(1-(8-cyclobutyl-8-azabicyclo[3.2.1]octan-3-yl)piperidin-4-yl)-8-methyl-2-(4-(methylsulfonyl)phenyl)imidazo[1,2-a]pyridine], 0.012 µM corresponded to half-maximal inhibition at human TLR9 (IC50). Compared with the last compound, the IC50 is about 1.5-fold higher. Compound `COc1ccc(-c2nc3ccc(C4CC5CCC(C4)N5C4CCN(C5CC5)CC4)cn3n2)cc1OC` (centres unmarked) [Example 146, 6-(8-(1-cyclopropylpiperidin-4-yl)-8-azabicyclo[3.2.1]octan-3-yl)-2-(3,4-dimethoxyphenyl)-[1,2,4]triazolo[1,5-a]pyridine] showed an IC50 against human TLR9 of 0.769 µM. For the compound `Cc1cc(C2CCN(C3CCN(C4CC4)CC3)CC2)cn2nc(-c3ccc(S(C)(=O)=O)cc3)nc12` [Example 161, 6-(1′-cyclopropyl-[1,4′-bipiperidin]-4-yl)-8-methyl-2-(4-(methylsulfonyl)phenyl)-[1,2,4]triazolo[1,5-a]pyridine], on human TLR9, the IC50 came out at 0.27 µM. For `Cc1cc(C2CCN(C3CCN(C4CCC4)CC3)CC2)cn2cc(-c3ccc(S(C)(=O)=O)cc3)nc12` [Example 91, 6-(1′-cyclobutyl-[1,4′-bipiperidin]-4-yl)-8-methyl-2-(4-(methylsulfonyl)phenyl) imidazo[1,2-a]pyridine], the midpoint of inhibition against human TLR9, the IC50, lay at 0.019 µM. `COc1ccc(-c2nc3n(n2)CC(C2CC4CCC(C2)N4C2CCN(C4CC4)CC2)CC3)cc1OC` (centres unmarked) [Example 145, 6-(8-(1-cyclopropylpiperidin-4-yl)-8-azabicyclo[3.2.1]octan-3-yl)-2-(3,4-dimethoxyphenyl)-5,6,7,8-tetrahydro-[1,2,4]triazolo[1,5-a]pyridine]: inhibition against human TLR9 was half-maximal at 0.342 µM (IC50). Turning to `COc1ccc(-c2nc3n(n2)CC(c2ccc(N4CCN(C(C)C)CC4)cc2)CC3C)cc1OC` (centres unmarked) [Example 144, 2-(3,4-dimethoxyphenyl)-6-(4-(4-isopropylpiperazin-1-yl)phenyl)-8-methyl-5,6,7,8-tetrahydro-[1,2,4]triazolo[1,5-a]pyridine], half-maximal inhibition at human TLR9 (IC50) was put at 1.46 µM. Same read-out and setting: as for `COc1ccc(-c2cn3cc(C4CC5CCC(C4)N5C4CCN(CC(C)C)CC4)cc(C)c3n2)cc1OC` (single isomer, unassigned) [Example 29, 2-(3,4-dimethoxyphenyl)-6-(8-(1-isobutylpiperidin-4-yl)-8-azabicyclo[3.2.1]octan-3-yl)-8-methylimidazo[1,2-a]pyridine], the figure is 0.01 µM. On the same count and under the same terms, as for `CC1CC(c2ccc(N3CC4CCC(C3)N4C(C)C)cc2)Cn2nc(-c3ccc(S(C)(=O)=O)cc3)nc21` (centres unmarked) [Example 154, 6-(4-(8-isopropyl-3,8-diazabicyclo[3.2.1]octan-3-yl)phenyl)-8-methyl-2-(4-(methylsulfonyl)phenyl)-5,6,7,8-tetrahydro-[1,2,4]triazolo[1,5-a]pyridine], the figure is 7.74 µM; as for `CC(C)CN1C2CCC1CC(N1CCC([C@@H]3CCc4nc(-c5ccc(S(C)(=O)=O)cc5)cn4C3)CC1)C2` (single isomer, unassigned) [Example 81], 0.0091 µM. On human TLR9, `COc1ccc(-c2nc3c(C)cc(C4CCN(C5CCN(C(C)C)CC5)CC4)cn3n2)cc1OC` [Example 158, 2-(3,4-dimethoxyphenyl)-6-(1′-isopropyl-[1,4′-bipiperidin]-4-yl)-8-methyl-[1,2,4]triazolo[1,5-a] pyridine] had an IC50 of 0.152 µM. Same read-out and setting: as for `CC1CC(c2ccc(N3CCN(C(C)C)CC3)cc2)Cn2nc(-c3ccc(S(C)(=O)=O)cc3)nc21` (centres unmarked) [Example 150, 6-(4-(4-isopropylpiperazin-1-yl)phenyl)-8-methyl-2-(4-(methylsulfonyl)phenyl)-5,6,7,8-tetrahydro-[1,2,4]triazolo[1,5-a]pyridine], the figure is 20.9 µM; as for `COc1ccc(-c2nc3ccc(C4CCN(C5CCN(C6CC6)CC5)CC4)cn3n2)cc1OC` [Example 164, 6-(1′-cyclopropyl-[1,4′-bipiperidin]-4-yl)-2-(3,4-dimethoxyphenyl)-[1,2,4]triazolo[1,5-a]pyridine], 0.39 µM.
